Results as given in patent US20260217698A1 (BEYANG THERAPEUTICS CO., LTD., priority 2022, published 2026).
Values after ≈ are worked out from the molar mass of the structure shown.

Tests used:
VEGFR3 = target: T1, VEGFR3 (Homo sapiens, UniProt P35916); assay: Kinase inhibition, Mobility Shift Assay/IMAP, VEGFR3; type: biochemical
T1 construct: purchased Invitrogen PV4129
Text: (§1) This assay directly monitored the ability of compounds to inhibit kinase phosphorylation by measuring non-phosphorylated and phosphorylated substrates in kinase reactions by using Mobility Shift Assays/IMAP™ analysis.
(§2) Read the conversion ratio data on CaliperEZ Reader II. Convert conversion rates into inhibition ratio data.
(§3) “Min” indicates the readout of the control well without the addition of enzymes; and “Max” indicates the readout of the control well with the addition of DMSO Fit IC50 values with XL Fit excel add-in version […].
(§4) X indicates the log value of compound concentration, and Y indicates the inhibition ratio (% inhibition).

EGFR = target: T2, EGFR (Homo sapiens, UniProt P00533); assay: Kinase inhibition, Mobility Shift Assay/IMAP, EGFR; type: biochemical
T2 construct: purchased Carna 08-115
T2 sequence (P00533 669-1210 limits assumed): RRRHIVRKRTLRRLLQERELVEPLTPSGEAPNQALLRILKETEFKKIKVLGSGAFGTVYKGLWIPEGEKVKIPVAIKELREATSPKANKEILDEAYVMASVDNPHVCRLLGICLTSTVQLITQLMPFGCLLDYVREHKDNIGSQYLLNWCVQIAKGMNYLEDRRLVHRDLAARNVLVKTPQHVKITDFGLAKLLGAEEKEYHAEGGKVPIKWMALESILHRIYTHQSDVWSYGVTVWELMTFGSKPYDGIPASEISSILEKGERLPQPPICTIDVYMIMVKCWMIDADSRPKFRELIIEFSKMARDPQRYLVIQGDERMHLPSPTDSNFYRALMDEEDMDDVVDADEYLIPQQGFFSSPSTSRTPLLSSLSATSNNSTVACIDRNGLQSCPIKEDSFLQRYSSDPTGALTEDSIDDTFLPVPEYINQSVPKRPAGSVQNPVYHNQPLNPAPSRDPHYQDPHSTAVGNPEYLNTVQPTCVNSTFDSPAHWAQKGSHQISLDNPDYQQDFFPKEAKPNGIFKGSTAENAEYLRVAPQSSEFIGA
How it was run: (§5)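 Substrate conversion (phosphorylated vs non-phosphorylated) read by mobility shift on Caliper EZ Reader II and converted to % inhibition relative to no-enzyme and DMSO controls. IC50 fitted from % inhibition versus log compound concentration.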

VEGFR1 = target: T3, VEGFR1 (Homo sapiens, UniProt P17948); assay: Kinase inhibition, Mobility Shift Assay/IMAP, VEGFR1; type: biochemical
T3 construct: purchased Invitrogen PR6731B
T3 sequence (P17948 27-1338): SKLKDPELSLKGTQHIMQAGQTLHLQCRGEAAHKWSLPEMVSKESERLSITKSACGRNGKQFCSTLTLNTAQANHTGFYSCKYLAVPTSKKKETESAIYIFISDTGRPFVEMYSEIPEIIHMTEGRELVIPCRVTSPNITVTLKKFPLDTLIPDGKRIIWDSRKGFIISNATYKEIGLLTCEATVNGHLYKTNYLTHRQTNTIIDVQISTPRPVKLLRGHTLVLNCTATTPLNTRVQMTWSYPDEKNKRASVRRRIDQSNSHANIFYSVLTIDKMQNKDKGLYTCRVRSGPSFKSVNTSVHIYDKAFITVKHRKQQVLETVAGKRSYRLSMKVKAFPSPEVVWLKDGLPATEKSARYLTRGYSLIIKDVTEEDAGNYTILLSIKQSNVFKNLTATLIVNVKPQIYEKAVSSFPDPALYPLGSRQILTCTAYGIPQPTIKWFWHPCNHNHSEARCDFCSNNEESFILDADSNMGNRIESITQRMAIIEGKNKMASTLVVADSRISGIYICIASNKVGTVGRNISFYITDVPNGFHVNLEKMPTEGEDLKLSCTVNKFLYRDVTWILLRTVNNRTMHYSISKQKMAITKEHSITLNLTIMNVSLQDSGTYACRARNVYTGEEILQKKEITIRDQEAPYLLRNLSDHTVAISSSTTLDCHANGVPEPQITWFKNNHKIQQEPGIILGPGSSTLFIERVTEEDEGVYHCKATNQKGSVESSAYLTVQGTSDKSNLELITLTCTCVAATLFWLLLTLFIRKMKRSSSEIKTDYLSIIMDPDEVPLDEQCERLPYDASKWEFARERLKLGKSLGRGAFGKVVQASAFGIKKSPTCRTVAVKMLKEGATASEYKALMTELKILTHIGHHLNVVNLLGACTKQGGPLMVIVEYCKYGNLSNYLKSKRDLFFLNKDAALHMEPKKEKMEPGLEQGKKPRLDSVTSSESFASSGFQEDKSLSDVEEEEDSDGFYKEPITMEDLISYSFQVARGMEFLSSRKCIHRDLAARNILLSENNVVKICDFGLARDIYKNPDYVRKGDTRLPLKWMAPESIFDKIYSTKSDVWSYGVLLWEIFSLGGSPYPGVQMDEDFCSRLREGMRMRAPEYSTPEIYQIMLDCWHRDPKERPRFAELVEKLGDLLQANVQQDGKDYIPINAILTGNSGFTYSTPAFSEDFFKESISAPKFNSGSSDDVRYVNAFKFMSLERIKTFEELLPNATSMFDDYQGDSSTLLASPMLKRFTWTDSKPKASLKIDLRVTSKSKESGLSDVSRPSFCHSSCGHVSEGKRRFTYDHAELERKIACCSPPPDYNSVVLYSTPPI
Text: as §1, §2, §3, §4

VEGFR2 = VEGFR2 (Homo sapiens, UniProt P35968); assay: Kinase inhibition, Mobility Shift Assay/IMAP, VEGFR2; type: biochemical; set-up: purchased Carna 08-191
Chain of VEGFR2 (P35968 790-1356 limits assumed): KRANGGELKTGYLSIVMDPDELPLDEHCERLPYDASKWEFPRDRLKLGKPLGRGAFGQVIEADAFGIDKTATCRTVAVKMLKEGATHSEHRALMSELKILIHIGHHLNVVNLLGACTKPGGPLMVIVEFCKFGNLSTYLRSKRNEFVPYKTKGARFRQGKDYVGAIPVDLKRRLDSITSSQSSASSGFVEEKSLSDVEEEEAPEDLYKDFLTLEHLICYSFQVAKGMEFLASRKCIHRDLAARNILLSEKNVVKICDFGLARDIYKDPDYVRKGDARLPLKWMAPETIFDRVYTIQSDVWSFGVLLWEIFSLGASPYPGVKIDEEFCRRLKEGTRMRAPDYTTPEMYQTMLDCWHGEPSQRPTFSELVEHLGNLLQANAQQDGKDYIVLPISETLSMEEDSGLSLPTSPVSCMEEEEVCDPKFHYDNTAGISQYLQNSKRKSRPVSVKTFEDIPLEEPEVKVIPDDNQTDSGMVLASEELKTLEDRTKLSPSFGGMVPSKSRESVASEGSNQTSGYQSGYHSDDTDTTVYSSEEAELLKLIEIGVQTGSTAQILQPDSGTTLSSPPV
How it was run: as §5

melanin = assay: Binding capacity of compounds to melanin; type: in vitro ADME, cuttlefish (Sepia officinalis); conditions: cuttlefish (Sepia officinalis), melanin suspension (1 mg/mL); 1 mg/mL melanin in PBS pH 7.4, 2 μM compound, 2 h at 37° C.; read-out: Fu % (percentage of free drug)
How it was run: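 Compound (2 μM final) incubated with washed Sepia melanin (1 mg/mL, PBS pH 7.4) 2 h at 37° C with shaking; PBS with 0.1% BSA served as blank. Supernatants quantified by LC-MS/MS; bound fraction Fb derived from melanin versus blank concentration.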

TIE2 = target: T4, TIE2 (Homo sapiens, UniProt Q02763); assay: Kinase inhibition, Mobility Shift Assay/IMAP, TIE2; type: biochemical
T4 construct: purchased BPS 40270
T4 sequence (Q02763 23-1124): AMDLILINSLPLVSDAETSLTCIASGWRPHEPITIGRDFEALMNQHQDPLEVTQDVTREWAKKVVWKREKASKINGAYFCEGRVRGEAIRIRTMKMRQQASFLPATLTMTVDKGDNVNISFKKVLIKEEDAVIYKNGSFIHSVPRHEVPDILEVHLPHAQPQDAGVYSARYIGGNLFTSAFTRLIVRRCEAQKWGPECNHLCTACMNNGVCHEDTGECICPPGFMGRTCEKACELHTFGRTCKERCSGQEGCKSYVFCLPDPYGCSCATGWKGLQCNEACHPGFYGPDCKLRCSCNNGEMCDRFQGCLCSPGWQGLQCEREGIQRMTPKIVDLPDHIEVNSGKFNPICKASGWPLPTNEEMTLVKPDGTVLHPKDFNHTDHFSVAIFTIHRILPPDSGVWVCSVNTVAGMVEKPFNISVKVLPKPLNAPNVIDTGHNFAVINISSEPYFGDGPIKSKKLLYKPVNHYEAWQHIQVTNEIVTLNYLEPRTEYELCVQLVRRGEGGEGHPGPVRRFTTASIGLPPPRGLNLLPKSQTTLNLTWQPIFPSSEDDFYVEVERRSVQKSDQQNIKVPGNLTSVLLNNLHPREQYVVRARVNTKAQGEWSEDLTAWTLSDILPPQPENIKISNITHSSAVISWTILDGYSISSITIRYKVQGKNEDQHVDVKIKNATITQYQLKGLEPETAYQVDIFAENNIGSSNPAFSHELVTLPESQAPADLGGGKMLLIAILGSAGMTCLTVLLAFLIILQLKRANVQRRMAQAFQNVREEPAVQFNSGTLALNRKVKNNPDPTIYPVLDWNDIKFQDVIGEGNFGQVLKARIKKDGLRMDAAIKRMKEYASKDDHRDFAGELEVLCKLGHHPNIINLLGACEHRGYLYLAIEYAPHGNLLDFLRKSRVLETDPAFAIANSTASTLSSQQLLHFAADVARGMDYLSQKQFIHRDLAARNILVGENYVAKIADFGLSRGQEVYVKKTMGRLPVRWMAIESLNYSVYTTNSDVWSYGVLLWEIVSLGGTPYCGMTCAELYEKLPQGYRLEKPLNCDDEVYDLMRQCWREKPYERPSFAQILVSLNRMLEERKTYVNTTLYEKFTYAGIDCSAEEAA
Text: as §1, §2, §3, §4

[1] = Solubility test in buffer, LC-MS; type: physicochemical; conditions: aqueous buffer, thermodynamic from solid, room temperature, shaking 8 h, pH not given (method: pH 2.0, 6.5, 7.4)
Protocol: Accurately weigh 3 portions of about 2 mg of the compound, and add appropriate volumes of buffers with the pHs of 2.0, 6.5, and 7.4 respectively to obtain a solution with a concentration of 2 mg/mL. After sonication for 10 min, fix them on a shaker and shaking for 8 h at room temperature. After shaking, sonicate for 10 min and centrifuge for 15 min at 13,000 rpm. Pipette 0.1 mL of supernatant into a new tube, shake and rinse it with 5 mL, and discard the liquid. Transfer 0.5 mL of the supernatant again to a new tube, centrifuge it for 15 min at 13,000 rpm, then collect the supernatant (if necessary, dilute with water) and analyze it by LC-MS. The sample concentrations at 3~5 points are subjected to fitting and reticle for quantification.

T1 sequence (P35916 25-1363): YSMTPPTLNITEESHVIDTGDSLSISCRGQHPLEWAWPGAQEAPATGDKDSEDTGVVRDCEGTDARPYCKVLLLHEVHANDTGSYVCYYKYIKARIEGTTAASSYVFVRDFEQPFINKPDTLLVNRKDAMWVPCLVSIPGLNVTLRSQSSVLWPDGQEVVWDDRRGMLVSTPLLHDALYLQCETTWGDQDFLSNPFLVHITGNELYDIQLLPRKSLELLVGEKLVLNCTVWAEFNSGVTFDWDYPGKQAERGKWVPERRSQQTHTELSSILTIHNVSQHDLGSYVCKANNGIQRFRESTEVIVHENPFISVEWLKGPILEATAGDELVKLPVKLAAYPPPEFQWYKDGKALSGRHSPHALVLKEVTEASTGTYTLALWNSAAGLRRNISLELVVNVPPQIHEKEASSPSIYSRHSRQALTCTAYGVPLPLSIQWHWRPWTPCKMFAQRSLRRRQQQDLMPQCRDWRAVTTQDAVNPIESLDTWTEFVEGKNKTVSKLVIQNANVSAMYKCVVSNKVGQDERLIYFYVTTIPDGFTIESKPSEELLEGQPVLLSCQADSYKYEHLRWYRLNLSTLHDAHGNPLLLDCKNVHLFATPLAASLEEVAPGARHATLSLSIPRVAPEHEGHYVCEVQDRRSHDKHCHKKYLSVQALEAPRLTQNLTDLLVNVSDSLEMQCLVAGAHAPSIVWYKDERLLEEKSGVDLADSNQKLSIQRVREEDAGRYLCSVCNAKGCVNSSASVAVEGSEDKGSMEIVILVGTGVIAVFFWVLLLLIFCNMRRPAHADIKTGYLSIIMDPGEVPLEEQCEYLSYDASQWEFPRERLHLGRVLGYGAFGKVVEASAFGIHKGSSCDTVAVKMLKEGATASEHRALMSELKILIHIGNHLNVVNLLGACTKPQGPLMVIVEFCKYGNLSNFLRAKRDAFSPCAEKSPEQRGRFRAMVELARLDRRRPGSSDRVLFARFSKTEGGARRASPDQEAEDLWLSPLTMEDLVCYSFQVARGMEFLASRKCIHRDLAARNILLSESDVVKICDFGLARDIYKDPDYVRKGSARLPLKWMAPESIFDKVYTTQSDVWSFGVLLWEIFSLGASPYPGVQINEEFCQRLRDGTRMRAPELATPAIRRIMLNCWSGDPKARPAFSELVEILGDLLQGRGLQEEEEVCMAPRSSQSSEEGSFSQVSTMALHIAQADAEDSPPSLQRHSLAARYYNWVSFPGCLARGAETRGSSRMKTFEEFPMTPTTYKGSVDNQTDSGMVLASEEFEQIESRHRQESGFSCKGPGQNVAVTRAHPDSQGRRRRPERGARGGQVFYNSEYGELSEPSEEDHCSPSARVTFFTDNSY

CCN1CCC(CCNC(=O)Nc2snc(OCc3ccc4c(c3)OCC4)c2C(N)=O)CC1 [Compound T076, 3-(2,3-dihydrobenzofuran-6-ylmethoxy)-5-[2-(1-ethyl-4-piperidyl)ethylcarbamoylamino]isothiazole-4-carboxamide]
IC50 (VEGFR3): 23.8 nM
IC50 (EGFR): 43.6 µM
IC50 (VEGFR1): 26.7 nM
IC50 (VEGFR2): 12.6 nM
fraction unbound at 2 h, 2 μM (melanin): 0.0311

NC(=O)c1c(OCc2ccc3c(c2)OCC3)nsc1NC(=O)NCCC1CCN(C2CC2)CC1 [Compound T083, 5-[2-(1-cyclopropyl-4-piperidyl)ethylcarbamoylamino]-3-(2,3-dihydrobenzofuran-6-ylmethoxy)isothiazole-4-carboxamide]
IC50 (VEGFR3): 22.3 nM
IC50 (EGFR): 18.1 µM
IC50 (VEGFR1): 25.6 nM
IC50 (TIE2): 164 nM
IC50 (VEGFR2): 12.7 nM
fraction unbound at 2 h, 2 μM (melanin): 0.0749

NC(=O)c1c(OCc2cc(F)cc(C(=O)NC3CC3)c2)nsc1NC(=O)NCCCCN1CCCC1 [Compound T085, 3-[[3-(cyclopropylcarbamoyl)-5-fluoro-phenyl]methoxy]-5-(4-pyrrolidin-1-ylbutylcarbamoylamino)isothiazole-4-carboxamide]
IC50 (VEGFR3): 10.6 nM
IC50 (EGFR): > 60 µM
IC50 (VEGFR1): 4.95 nM
IC50 (TIE2): 4590 nM
IC50 (VEGFR2): 1.7 nM
fraction unbound at 2 h, 2 μM (melanin): 0.0612

NC(=O)c1c(OCc2cc3c(cc2F)CCO3)nsc1NC(=O)NCCN1CC[C@@H](F)C1 [Compound T081, 3-[(5-fluoro-2,3-dihydrobenzofuran-6-yl)methoxy]-5-[2-[(3R)-3-fluoropyrrolidin-1-yl]ethylcarbamoylamino]isothiazole-4-carboxamide]
IC50 (VEGFR3): 23.9 nM
IC50 (EGFR): 19.6 µM
IC50 (VEGFR1): 21.9 nM
IC50 (VEGFR2): 16 nM
fraction unbound at 2 h, 2 μM (melanin): 0.0632

NC(=O)c1c(OCc2cc3c(cc2F)CCO3)nsc1NC(=O)NCCCN1CC[C@@H](F)C1 [Compound T080, 3-[(5-fluoro-2,3-dihydrobenzofuran-6-yl)methoxy]-5-[3-[(3R)-3-fluoropyrrolidin-1-yl]propylcarbamoylamino]isothiazole-4-carboxamide]
IC50 (VEGFR3): 26.1 nM
IC50 (EGFR): 8.05 µM
IC50 (VEGFR1): 13.5 nM
IC50 (TIE2): 88 nM
fraction unbound at 2 h, 2 μM (melanin): 0.0582

CN1CCN(CCCNC(=O)Nc2snc(OCc3ccc4c(c3)OCC4)c2C(N)=O)CC1 [Compound T077, 3-(2,3-dihydrobenzofuran-6-ylmethoxy)-5-[3-(4-methylpiperazin-1-yl)propylcarbamoylamino]isothiazole-4-carboxamide]
IC50 (VEGFR3): 44 nM
IC50 (EGFR): 52 µM
IC50 (VEGFR1): 33 nM
IC50 (VEGFR2): 7.01 nM
fraction unbound at 2 h, 2 μM (melanin): 0.0385

NC(=O)c1c(OCc2ccc3ccoc3c2)nsc1NC(=O)NCCCCN1CCCC1 [Compound T054, 3-(benzofuran-6-ylmethoxy)-5-(3-(4-(pyrrolidin-1-yl)butyl)ureido)isothiazole-4-carboxamide]
IC50 (VEGFR3): 38.8 nM
IC50 (VEGFR1): 34.3 nM
IC50 (TIE2): 157 nM
IC50 (VEGFR2): 17.7 nM

NC(=O)c1c(OCc2ccc(OC(F)F)c(F)c2)nsc1NC(=O)NCCCCN1CCCC1 [Compound T027, 3-((4-(difluoromethoxy)-3-fluorobenzyl)oxy)-5-(3-(4-(pyrrolidin-1-yl)butyl)ureido)isothiazole-4-carboxamide]
solubility at 8 h [1]: 478 µg/mL (≈ 953 µM)
fraction unbound at 2 h, 2 μM (melanin): 0.0421

Cn1nc(COc2nsc(NC(=O)NCCCCN3CCCC3)c2C(N)=O)cc1Br [Compound T022, 3-((5-bromo-1-methyl-1H-pyrazol-3-yl)methoxy)-5-(3-(4-(pyrrolidin-1-yl)butyl)ureido)isothiazole-4-carboxamide]
solubility at 8 h [1]: 1290 µg/mL (≈ 2570 µM)

COc1cc(COc2nsc(NC(=O)NCCCCN3CCCC3)c2C(N)=O)cc(OC)c1 [Compound T006, 3-((3,5-dimethoxybenzyl)oxy)-5-(3-(4-(pyrrolidin-1-yl)butyl)ureido)isothiazole-4-carboxamide]
IC50 (EGFR): 35 µM
solubility at 8 h [1]: 1170 µg/mL (≈ 2450 µM)
IC50 (VEGFR2): 47.4 nM

NC(=O)c1c(OCc2ccc3c(c2F)OCC3)nsc1NC(=O)NCCCCN1CCCC1 [Compound T074, 3-((7-fluoro-2,3-dihydrobenzofuran-6-yl)methoxy)-5-(3-(4-(pyrrolidin-1-yl)butyl)ureido)isothiazole-4-carboxamide]
solubility at 8 h [1]: 133 µg/mL (≈ 278 µM)
IC50 (VEGFR2): 26.5 nM
fraction unbound at 2 h, 2 μM (melanin): 0.0462

NC(=O)c1c(OCc2ccc3c(c2)OCO3)nsc1NC(=O)NCCCCN1CCCC1 [Compound T007, 3-(benzo[d][1,3]dioxol-5-ylmethoxy)-5-(3-(4-(pyrrolidin-1-yl)butyl)ureido)isothiazole-4-carboxamide]
IC50 (TIE2): 475 nM
solubility at 8 h [1]: 608 µg/mL (≈ 1320 µM)
IC50 (VEGFR2): 43 nM

CCNC(=O)c1ccc(F)c(COc2nsc(NC(=O)NCCC3CCN(CCF)CC3)c2C(N)=O)c1 [Compound T127, 3-[[5-(ethylcarbamoyl)-2-fluoro-phenyl]methoxy]-5-[2-[1-(2-fluoroethyl)-4-piperidyl]ethylcarbamoylamino]isothiazole-4-carboxamide]
IC50 (TIE2): 241 nM
solubility at 8 h [1]: 1640 µg/mL (≈ 3040 µM)
IC50 (VEGFR2): 3 nM
fraction unbound at 2 h, 2 μM (melanin): 0.0362

CN1CCC(CCNC(=O)Nc2snc(OCc3cc(F)c4c(c3)OCC4)c2C(N)=O)CC1 [Compound T089, 3-((4-fluoro-2,3-dihydrobenzofuran-6-yl)methoxy)-5-(3-(2-(1-methylpiperidin-4-yl)ethyl)ureido)isothiazole-4-carboxamide]
IC50 (VEGFR3): 9.9 nM
IC50 (EGFR): 15.1 µM
IC50 (VEGFR1): 13.5 nM
IC50 (TIE2): 135 nM
IC50 (VEGFR2): 6.77 nM
fraction unbound at 2 h, 2 μM (melanin): 0.0235

NC(=O)c1c(OCc2cc(C(=O)NC3CC3)cc(F)c2F)nsc1NC(=O)NCCCCN1CCCC1 [Compound T133, 3-[[5-(cyclopropylcarbamoyl)-2,3-difluoro-phenyl]methoxy]-5-(4-pyrrolidin-1-ylbutylcarbamoylamino)isothiazole-4-carboxamide]
IC50 (EGFR): 21.5 µM
solubility at 8 h [1]: 757 µg/mL (≈ 1410 µM)
IC50 (VEGFR2): 0.5 nM

NC(=O)c1c(OCc2cc3c(cc2F)CCO3)nsc1NC(=O)NCCN1CCCCC1 [Compound T082, 3-[(5-fluoro-2,3-dihydrobenzofuran-6-yl)methoxy]-5-[2-(1-piperidyl)ethylcarbamoylamino]isothiazole-4-carboxamide]
IC50 (VEGFR3): 48.5 nM
IC50 (EGFR): 15.5 µM
IC50 (VEGFR1): 27.8 nM
IC50 (TIE2): 203 nM
IC50 (VEGFR2): 24 nM
fraction unbound at 2 h, 2 μM (melanin): 0.0757

NC(=O)c1c(OCc2ccc3c(c2)OCC3)nsc1NC(=O)NCCC1CCN(CCF)CC1 [Compound T084, 3-(2,3-dihydrobenzofuran-6-ylmethoxy)-5-[2-[1-(2-fluoroethyl)-4-piperidyl]ethylcarbamoylamino]isothiazole-4-carboxamide]
IC50 (VEGFR3): 37.1 nM
IC50 (EGFR): 15.8 µM
IC50 (VEGFR1): 30.1 nM
IC50 (TIE2): 221 nM
IC50 (VEGFR2): 14.1 nM

NC(=O)c1c(OCc2ccc3c(c2)COC3)nsc1NC(=O)NCCCCN1CCCC1 [Compound T072, 3-((1,3-dihydroisobenzofuran-5-yl)methoxy)-5-(3-(4-(pyrrolidin-1-yl)butyl)ureido)isothiazole-4-carboxamide]
IC50 (EGFR): 43.5 µM
solubility at 8 h [1]: 2060 µg/mL (≈ 4480 µM)
fraction unbound at 2 h, 2 μM (melanin): 0.0196

COc1cccc(COc2nsc(NC(=O)NCCCCN3CCCC3)c2C(N)=O)c1F [Compound T030, 3-((2-fluoro-3-methoxybenzyl)oxy)-5-(3-(4-(pyrrolidin-1-yl)butyl)ureido)isothiazole-4-carboxamide]
IC50 (EGFR): 21.8 µM
solubility at 8 h [1]: 1520 µg/mL (≈ 3260 µM)
IC50 (VEGFR2): 34.8 nM
fraction unbound at 2 h, 2 μM (melanin): 0.0232
